biological target: Beta-secretase 1 (Homo sapiens, UniProt P56817)
Sequence (P56817 whole entry): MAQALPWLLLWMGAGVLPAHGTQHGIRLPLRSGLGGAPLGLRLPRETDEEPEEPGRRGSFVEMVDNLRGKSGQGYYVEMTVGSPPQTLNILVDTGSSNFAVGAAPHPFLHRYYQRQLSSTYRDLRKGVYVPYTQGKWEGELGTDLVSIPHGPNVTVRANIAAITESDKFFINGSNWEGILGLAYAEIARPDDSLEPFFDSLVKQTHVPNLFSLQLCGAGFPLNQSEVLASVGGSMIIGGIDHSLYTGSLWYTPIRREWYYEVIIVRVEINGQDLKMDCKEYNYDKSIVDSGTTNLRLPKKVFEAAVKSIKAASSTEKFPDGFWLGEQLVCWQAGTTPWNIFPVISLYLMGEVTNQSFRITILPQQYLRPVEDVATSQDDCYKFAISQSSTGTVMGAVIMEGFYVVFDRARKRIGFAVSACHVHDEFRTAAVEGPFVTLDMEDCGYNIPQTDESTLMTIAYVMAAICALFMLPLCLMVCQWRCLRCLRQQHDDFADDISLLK
Description: Inhibition of BACE1 activity

IC50 [nM]	SMILES
980	CNC(=O)c1cc(C(=O)N[C@@H](Cc2ccccc2)[C@H](O)CNC2CC2)cc(N(C)S(C)(=O)=O)c1
5900	CN(c1cc(C(=O)N[C@@H](Cc2ccccc2)[C@H](O)CNC2CC2)cc(C(O)c2ccccc2)c1)S(C)(=O)=O (stereo partly drawn)
1500	CCC(=O)c1cc(C(=O)N[C@@H](Cc2ccccc2)[C@H](O)CNC2CC2)cc(N(C)S(C)(=O)=O)c1
730	CN(c1cc(/C=C/C2CC2)cc(C(=O)N[C@@H](Cc2ccccc2)[C@H](O)CNC2CC2)c1)S(C)(=O)=O
4630	CN(c1cc(Cc2ccccc2)cc(C(=O)N[C@@H](Cc2ccccc2)[C@H](O)CNC2CC2)c1)S(C)(=O)=O
1300	C=C(c1ccccc1)c1cc(C(=O)N[C@@H](Cc2ccccc2)[C@H](O)CNC2CC2)cc(N(C)S(C)(=O)=O)c1
5500	CN(c1cc(C(=O)N[C@@H](Cc2ccccc2)[C@H](O)CNC2CC2)cc(C(O)Cc2ccccc2)c1)S(C)(=O)=O (stereo partly drawn)
35	CN(c1cc(/C=C\C2CC2)cc(C(=O)N[C@@H](Cc2ccccc2)[C@H](O)CNC2CC2)c1)S(C)(=O)=O
1400	CN(c1cc(C(=O)Cc2ccccc2)cc(C(=O)N[C@@H](Cc2ccccc2)[C@H](O)CNC2CC2)c1)S(C)(=O)=O

SMILES	IC50 [nM]
CN(c1cc(C(=O)N[C@@H](Cc2ccccc2)[C@H](O)CNC2CC2)cc(C(=O)C2CCCC2)c1)S(C)(=O)=O	180
CC(C)C(=O)c1cc(C(=O)N[C@@H](Cc2ccccc2)[C@H](O)CNC2CC2)cc(N(C)S(C)(=O)=O)c1	240
CN(c1cc(C(=O)N[C@@H](Cc2ccccc2)[C@H](O)CNC2CC2)cc(C(=O)C2CCCCC2)c1)S(C)(=O)=O	450
CN(c1cc(CCC2CC2)cc(C(=O)N[C@@H](Cc2ccccc2)[C@H](O)CNC2CC2)c1)S(C)(=O)=O	420
